# Biological target: T1, full-length SHP2 (Homo sapiens, UniProt Q06124)
# T1 construct: used for the expression and purification of the full-length SHP2; made in house; host or cells: E. coli (similar protocol as for SHP2-PTP)
# T1 sequence (Q06124 1-593): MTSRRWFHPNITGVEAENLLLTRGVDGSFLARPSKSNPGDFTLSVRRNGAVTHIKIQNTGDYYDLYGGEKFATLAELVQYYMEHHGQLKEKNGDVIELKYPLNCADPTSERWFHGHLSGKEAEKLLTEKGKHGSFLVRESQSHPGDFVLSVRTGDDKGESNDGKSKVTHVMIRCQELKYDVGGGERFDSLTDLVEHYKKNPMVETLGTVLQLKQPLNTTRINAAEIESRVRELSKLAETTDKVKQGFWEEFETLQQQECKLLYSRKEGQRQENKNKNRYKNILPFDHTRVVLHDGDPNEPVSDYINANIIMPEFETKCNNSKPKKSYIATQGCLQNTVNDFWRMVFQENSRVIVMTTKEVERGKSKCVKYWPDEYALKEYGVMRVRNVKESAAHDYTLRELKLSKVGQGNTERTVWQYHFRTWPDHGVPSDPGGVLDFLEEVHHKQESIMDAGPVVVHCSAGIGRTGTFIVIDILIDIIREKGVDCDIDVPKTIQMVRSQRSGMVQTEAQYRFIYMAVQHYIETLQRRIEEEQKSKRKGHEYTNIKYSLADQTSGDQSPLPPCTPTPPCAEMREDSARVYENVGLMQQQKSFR
# Assay: full-length SHP2 inhibition assay (DiFMUP, pIRS-1 activated)
# Assay type: biochemical
# Conditions: activating peptide p-IRS-1 supplemented; read-out: IC50 on full length SHP2 (SHP2-FL)
# Method: Cell pellets were collected and suspended in a buffer of 50 mM Tris-HCl (Ph = 8.5), 150 mM NaCl supplemented with 10% glycerol, and lysed by homogeniser (JN-BIO, China). After centrifugation, the collected supernatants were diluted with a Tris-HCl buffer (pH = 8.5) containing 50 mM imidazole and 150 mM NaCl and then loaded onto a Ni-NTA column (#88221, Thermo). The bound SHP2 protein was eluted with a buffer containing 150 and 300 mM imidazole. The pooled protein was loaded onto a HiTrap Q column after dilution in 25 mM Tris-HCl buffer. After elution using a linear gradient of NaCl (0–0.5 M), peak fractions containing the SHP2 protein were concentrated and applied to a gel filtration Superdex 200 column (GE Healthcare). Purified SHP2-PTP proteins were flash-frozen and stored. Similar expression and purification protocols were used for the expression and purification of the full-length SHP2 and SHP2-PTP ^K366A/Q510A double mutants.
# A surrogate phosphatase substrate, 6,8-difluoro-4-methylumbelliferyl phosphate (DiFMUP, Thermo Fisher, #D22065), was used to monitor the catalytic activity of SHP2 in a prompt fluorescence assay format. […] The signals were read on a plate reader (SpectraMax iD5, Molecular Devices). […] The inhibitor dose-response curves were evaluated using a normalised IC50 regression curve fitting with control-based normalisation. […]
compound,measurement,value
"C/C1=C\CCC2=C[C@@H](OC2=O)c2c(C)coc2C1 [LIN, linderalactone]",IC50,1980 nM

# Reference: paper PMC9946977, “Identification of linderalactone as a natural inhibitor of SHP2 to ameliorate CCl4-induced liver fibrosis” (Frontiers in Pharmacology, 2023)
